Test results: patent US20180245061A1, “Modified Heterocyclase” (THE UNIVERSITY COURT OF THE UNIVERSITY OF ABERDEEN, priority 2014, published 2018)

Legend:
[1] = molecular target: Lyngbya sp. LynD heterocyclase (SEQ ID NO: 1) variant K409A; assay: ITC nucleotide binding (ATP/AMP) to LynD K409A; parameters: species or system Lyngbya sp. PCC 8106; conditions: 20° C., pH 7.4, 5 mM MgCl2
Protocol: (§1) Codon optimized full-length LynD (Lyngbya sp. PCC 8106) with an N-terminal TEV protease-cleavable His6-tag was purchased from DNA2.0 in the pJexpress411 plasmid. The protein was expressed in Escherichia coli BL21 (DE3) grown on auto-induction medium {Studier, 2005, Protein expression and purification, 41, 207-234} for 48 h at 20° C. Cells were harvested by centrifugation at 4,000×g, 4° C. for 15 min and re-suspended in lysis buffer (500 mM NaCl, 20 mM Tris pH 8.0, 20 mM imidazole and 3 mM β-mercaptoethanol (BME)) with the addition of complete EDTA-free protease inhibitor tablets (Roche) and 0.4 mg DNase g^−1 wet cells (Sigma). Cells were lysed by passage through a cell disruptor at 30 kPSI (Constant Systems Ltd) and the lysate was cleared by centrifugation at 40,000×g, 4° C. for 20 min. The cleared lysate was applied to a Nickel Sepharose 6 Fast Flow (GE Healthcare) column pre-washed with lysis buffer and protein eluted with 250 mM imidazole. The protein was then passed over a desalting column (Desalt 16/10, GE Healthcare) in 100 mM NaCl, 20 mM Tris pH 8.0, 20 mM imidazole, 3 mM BME. Tobacco etch virus (TEV) protease was added to the protein at a mass-to-mass ratio of 1:10 and the protein digested for 2 h at 20° C. to remove the Hiss-tag. However, removal of the Hiss-tag was not essential for activity and so less vigorous methods for purification may also be used. […]

[2] = molecular target: Lyngbya sp. LynD heterocyclase, wild type, SEQ ID NO: 1; assay: ITC nucleotide binding (ATP/AMP) to LynD; parameters: species or system Lyngbya sp. PCC 8106; conditions: 20° C., pH 7.4, 5 mM MgCl2, one-site model, stoichiometry set to 1, read-out: Nucleotide KD (ATP)
Protocol: as §1

[3] = molecular target: Lyngbya sp. LynD heterocyclase (SEQ ID NO: 1) variant R427E; assay: ITC nucleotide binding (ATP/AMP) to LynD R427E; parameters: species or system Lyngbya sp. PCC 8106; conditions: 20° C., pH 7.4, 5 mM MgCl2
Protocol: as §1

[4] = molecular target: Lyngbya sp. LynD heterocyclase (SEQ ID NO: 1) variant K409E; assay: ITC nucleotide binding (ATP/AMP) to LynD K409E; parameters: species or system Lyngbya sp. PCC 8106; conditions: 20° C., pH 7.4, 5 mM MgCl2
Protocol: as §1

[5] = molecular target: Lyngbya sp. LynD heterocyclase (SEQ ID NO: 1) variant E423R; assay: ITC nucleotide binding (ATP/AMP) to LynD E423R; parameters: species or system Lyngbya sp. PCC 8106; conditions: 20° C., pH 7.4, 5 mM MgCl2
Protocol: as §1

[6] = molecular target: Lyngbya sp. LynD heterocyclase (SEQ ID NO: 1) variant R636E; assay: ITC nucleotide binding (ATP/AMP) to LynD R636E; parameters: species or system Lyngbya sp. PCC 8106; conditions: 20° C., pH 7.4, 5 mM MgCl2
Protocol: as §1

PatE′ L26R = assay: Heterocyclization reaction with PatE′ L26R; assay type: biochemical; conditions: 2 μM enzyme, 5 mM ATP, 5 mM MgCl2, 16 h at 37° C.
Protocol: (§2) For all heterocyclization reactions, […] PatE′ (and variants,) was incubated with 2 μM enzyme in 150 mM NaCl, 10 mM HEPES pH 7.4, 1 mM TCEP, 5 mM ATP and 5 mM MgCl2 for 16 h at 37° C. Samples were analyzed by ESI or MALDI MS (LCT, Micromass or 4800 MALDI TOF/TOF Analyzer, ABSciex). For cis trans activation studies, 100 μM ITACITFCAYDG synthetic test peptide (Peptide Protein Research Ltd) was reacted with 5 μM heterocyclase enzyme in the presence and absence of 5.5 μM LAELSEEAL synthetic peptide, or 5.5 μM full-length PatE′4 leader peptide. The reaction was carried out in 150 mM NaCl, 10 mM HEPES pH 7.4, 1 mM TCEP, 5 mM ATP and 5 mM MgCl2 for 16 h at 37° C. and analyzed as above. Synthetic peptides were purchased from Peptide Protein Research Ltd.

PatE' L26R = molecular target: T1, PatE' L26R; assay: ITC, 20 C, one-site model with stoichiometry set to 1; LynD mutant in the cell, peptide in the syringe
T1 peptide: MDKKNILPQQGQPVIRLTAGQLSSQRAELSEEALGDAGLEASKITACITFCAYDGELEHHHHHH

[7] = molecular target: T2, PatE' (precursor peptide PatE variant, 64 amino acids, full leader, single core peptide ITACITFC, C-terminal …); assay: as above
T2 peptide: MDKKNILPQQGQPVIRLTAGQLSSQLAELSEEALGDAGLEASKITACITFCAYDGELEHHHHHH

PatE′ = assay: Heterocyclization reaction with PatE′, MS analysis; assay type: biochemical; conditions: 2 μM enzyme, 5 mM ATP, 5 mM MgCl2, 16 h at 37° C.; TABLE 2
Protocol: as §2

ITACITACAYDGE = assay: Heterocyclization of leaderless substrate peptide ITACITACAYDGE by fused-MicD/PatD enzymes (LC-ESI-MS, MALDI-TOF-MS, HPLC-ESI-MS); assay type: biochemical; conditions: 20-30 μM enzyme, 100-110 μM peptide, 5 mM ATP, 5 mM MgCl2, 27° C., 16 h
Protocol: The Reaction was performed in 100 mM Tris pH 8.0 supplemented with 150 mM NaCl, 5 mM ATP and 5 mM MgCl2 and contained 20 μM enzyme and 100 μM peptide. The mixture was incubated at 27° C. for 16 h. The unprocessed substrate has a molecular weight of 1329.5 Da.
Reaction was performed in 50 mM Bicine pH 9.0 supplemented with 150 mM NaCl, 5 mM ATP and 5 mM MgCl2 and contained 30 μM enzyme and 110 μM peptide. The mixture was incubated at 27° C. for 16 h. The unprocessed substrate has a molecular weight of 1219.5 Da.
Each reaction contained 100 mM Tris pH 8.0, 150 mM NaCl, 5 mM ATP and 5 mM MgCl2, 20 μM of the respective enzyme and 100 μM substrate peptide, and was incubated at 27° C. for 16 h. The unprocessed substrate has a molecular weight of 1329.5 Da.
Reaction was performed in 50 mM Bicine pH 9.0 supplemented with 150 mM NaCl, 5 mM ATP and 5 mM MgCl2 and contained 30 μM enzyme and 110 μM peptide. The mixture was incubated at 27° C. for 16 h. The unprocessed substrate has a molecular weight of 1329.5 Da.
Only 1 peak (9.254 min) indicates the reaction product is only one species. […] Multiple peaks of low intensity compared with m/z=1258.5 can be attributed to noise. Product was purified from the enzyme and ATP using size exclusion chromatography (Superdex 30, GE Healthcare) and exchanged into 50 mM Bicine pH 9.0, 500 mM NaCl and 5% DMSO.

Molecule: Nc1ncnc2c1ncn2[C@@H]1O[C@H](COP(=O)(O)OP(=O)(O)OP(=O)(O)O)[C@@H](O)[C@H]1O [ATP]
- Nucleotide KD (ATP) [1]: no binding
- Kd [2]: 50.2 µM
- Nucleotide KD (ATP) [3]: no binding
- Nucleotide KD (ATP) [4]: no binding
- Nucleotide KD (ATP) [5]: no binding
- Nucleotide KD (ATP) [6]: no binding

B1: LynD Y67D (enzyme)
chain: MQSTPLLQIQPHFHVEVIEPKQVYLLGEQANHALTGQLYCQILPLLNGQYTLEQIVEKLDGEVPPEDIDYVLERLAEKGYLTEAAPELSSEVAAFWSELGIAPPVAAEALRQPVTLTPVGNISEVTVAALTTALRDIGISVQTPTEAGSPTALNVVLTDDYLQPELAKINKQALESQQTWLLVKPVGSVLWLGPVFVPGKTGCWDCLAHRLRGNREVEASVLRQKQAQQQRNGQSGSVIGCLPTARATLPSTLQTGLQFAATEIAKWIVKYHVNATAPGTVFFPTLDGKIITLNHSILDLKSHILIKRSQCPTCGDPKILQHRGFEPLKLESRPKQFTSDGGHRGTTPEQTVQKYQHLISPVTGVVTELVRITDPANPLVHTYRAGHSFGSATSLRGLRNTLKHKSSGKGKTDSQSKASGLCEAVERYSGIFQGDEPRKRATLAELGDLAIHPEQCLCFSDGQYANRETLNEQATVAHDWIPQRFDASQAIEWTPVWSLTEQTHKYLPTALCYYHYPLPPEHRFARGDSNGNAAGNTLEEAILQGFMELVERDGVALWWYNRLRRPAVDLGSFNEPYFVQLQQFYRENDRDLWVLDLTADLGIPAFAGVSNRKTGSSERLILGFGAHLDPTIAILRAVTEVNQIGLELDKVPDENLKSDATDWLITEKLADHPYLLPDTTQPLKTAQDYPKRWSDDIYTDVMTCVNIAQQAGLETLVIDQTRPDIGLNVVKVTVPGMRHFWSRFGEGRLYDVPVKLGWLDEPLTEAQMNPTPMPF
- No. of heterocycles, peptide PatE′ L26R (PatE′ L26R): 2
- Kd (PatE' L26R): 15.2 µM
- Kd [7]: 12.9 µM
- No. of heterocycles, peptide PatE′ (PatE′): 2

B2: MicD-Q21-9GA: fused-MicD: leader from Q21, 9 GA repeats linker, KL, MicD (SEQ ID NO: 41) (protein)
chain: MSHHHHHHDYDENLYFQGSQLSSQLAELSEEALGDAGAGAGAGAGAGAGAGAGAKLMQSTPLLQIQPHFHVEVIEPKQVYLLGEQANYALTGQLYCQILPLLDGQHSREQIVEKLDGEVPSEYIDYVLDRLAEKGYLTEAAPELSSEVAAFWSELGIAPPVAAEALRQSVTLTPVGNISEVTVAALTTALRDIGISVQTPTEAGSPTALNVVLTDDYLQPELAKINKQALESQQTWLLVKPVGSVLWLGPVFVPGKTGCWDCLAHRLRGNREVEASVLQQKQAQQQRNGQSGSVIGCLPTARATLPSTLQTGLQFAATEIAKWIVKHHVKATAPGTVFFPTLDGKIITFNHTVIDLKSHVLVRRSQCPSCGDRQILHRQGFEPVKLVSRRKHFTHDGGHRAFTPEQTVQKYQHLVSPITGVVTELVRLTDPANPLVHTYKAGHAFGSATTLRGLRNTLKYKSSGKGKTDIQSRASGLCEAIERYSGIFQGDEPRKRATLAELGDLALHPESLLYFSNTQYANREELNAQGSAAAYRWIPNRFDVSQAIDWTPVWSLTEQKHKYVPTAFCYYGYPLPEEQRFCKADSNGNAAGNTLEEAILQGFLELVERDSIAMWWYNRIRRPAVDLSTFDEPYFVDLQQFYQQQNRELWVLDVTADLGIPAFAGFSRRTVGTSERISIGFGAHLDPTIAILRALTEVSQVGLELDKIPDDKLDGESKDWMLNVTVENHPWLAPDPSVPMKTASDYPKRWSDDIHTDVMNCVKTAQTAGLEVMVLDQTRPDIGLNVVKVIIPGMRTFWTRFGQGRLYDIPVKLGWLDAPLAEEELNQTNIPF
modifications: Modified heterocyclase MicroD_Q21_9GA
- heterocyclized species produced from ITACITACAYDGE (ITACITACAYDGE): 4
- heterocyclized species produced from ITACITACAYDGE (ITACITACAYDGE; listed as MicD-Q21-9G): only a single four heterocycle species
